# Laboratory results from PubChem BioAssay (NCI).
#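 Growth conditions: 96-well plates. Treatment: test compound, 48 hours, 5 concentrations. Analysis: linear interpolation between bracketing concentrations; unreached endpoints set to highest concentration. The concentration for 50% growth inhibition is given as GI50. TGI marks complete inhibition of growth.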
# Experiments:
# Experiment in all cases: DTP human tumour cell line panel, 48 h
# SK-MEL-2 melanoma = test system: SK-MEL-2 melanoma
# MDA-MB-435 = test system: MDA-MB-435
# MCF7 breast = test system: MCF7 breast
# T-47D breast = test system: T-47D breast
# NCI-H522 lung = test system: NCI-H522 lung
# HCC-2998 colon = test system: HCC-2998 colon
# MDA-MB-231 breast = test system: MDA-MB-231 breast
# OVCAR-3 ovarian = test system: OVCAR-3 ovarian
# 786-0 renal = test system: 786-0 renal
# K-562 leukemia = test system: K-562 leukemia
# DU-145 prostate = test system: DU-145 prostate
# OVCAR-8 ovarian = test system: OVCAR-8 ovarian
# SNB-19 CNS = test system: SNB-19 CNS
# A549 NSCLC = test system: A549 NSCLC
# BT-549 breast = test system: BT-549 breast
# HL-60(TB) leukemia = test system: HL-60(TB) leukemia
# SF-539 CNS = test system: SF-539 CNS
# SK-OV-3 ovarian = test system: SK-OV-3 ovarian
# MOLT-4 leukemia = test system: MOLT-4 leukemia
# HT29 colon = test system: HT29 colon
# ACHN renal = test system: ACHN renal
# OVCAR-5 ovarian = test system: OVCAR-5 ovarian
# U251 CNS = test system: U251 CNS
# SF-295 CNS = test system: SF-295 CNS
# NCI-H23 lung = test system: NCI-H23 lung
# RPMI-8226 leukemia = test system: RPMI-8226 leukemia
# NCI-H226 lung = test system: NCI-H226 lung
# HCT-15 colon = test system: HCT-15 colon
# IGROV1 ovarian = test system: IGROV1 ovarian
# SK-MEL-5 melanoma = test system: SK-MEL-5 melanoma
# MALME-3M melanoma = test system: MALME-3M melanoma
# HCT-116 colon = test system: HCT-116 colon
# CCRF-CEM leukemia = test system: CCRF-CEM leukemia
# NCI/ADR-RES ovarian = test system: NCI/ADR-RES ovarian
# HOP-62 NSCLC = test system: HOP-62 NSCLC
# OVCAR-4 ovarian = test system: OVCAR-4 ovarian
# EKVX NSCLC = test system: EKVX NSCLC
# UACC-257 melanoma = test system: UACC-257 melanoma
# SF-268 CNS = test system: SF-268 CNS
# NCI-H460 lung = test system: NCI-H460 lung
# UACC-62 melanoma = test system: UACC-62 melanoma
# UO-31 renal = test system: UO-31 renal
# PC-3 prostate = test system: PC-3 prostate
# KM12 colon = test system: KM12 colon
# SK-MEL-28 melanoma = test system: SK-MEL-28 melanoma
# SR leukemia = test system: SR leukemia
# SNB-75 CNS = test system: SNB-75 CNS
# TK-10 renal = test system: TK-10 renal
# COLO 205 colon = test system: COLO 205 colon
# LOX IMVI melanoma = test system: LOX IMVI melanoma
# SN12C renal = test system: SN12C renal
# HOP-92 NSCLC = test system: HOP-92 NSCLC
# A498 renal = test system: A498 renal
# M14 melanoma = test system: M14 melanoma
# HS 578T breast = test system: HS 578T breast
# SW-620 colon = test system: SW-620 colon
smiles,measurement,setting,value
COc1cnc2c(c1)C(=O)c1c-2n(CCCNC2=NCCS2)c(=O)c2cc(F)ccc12,GI50,SK-MEL-2 melanoma,15800 nM
same,TGI,SK-MEL-2 melanoma,32700 nM
same,GI50,MDA-MB-435,750 nM
same,TGI,MDA-MB-435,2370 nM
same,GI50,MCF7 breast,33 nM
same,TGI,MCF7 breast,1660 nM
same,GI50,T-47D breast,76.2 nM
same,TGI,T-47D breast,17200 nM
same,GI50,NCI-H522 lung,38.1 nM
same,TGI,NCI-H522 lung,1280 nM
same,GI50,HCC-2998 colon,12800 nM
same,TGI,HCC-2998 colon,28600 nM
same,GI50,MDA-MB-231 breast,1140 nM
same,TGI,MDA-MB-231 breast,2570 nM
same,GI50,OVCAR-3 ovarian,567 nM
same,TGI,OVCAR-3 ovarian,2270 nM
same,GI50,786-0 renal,271 nM
same,TGI,786-0 renal,1310 nM
same,GI50,K-562 leukemia,249 nM
same,TGI,K-562 leukemia,2920 nM
same,GI50,DU-145 prostate,144 nM
same,TGI,DU-145 prostate,1630 nM
same,GI50,OVCAR-8 ovarian,132 nM
same,TGI,OVCAR-8 ovarian,4720 nM
same,GI50,SNB-19 CNS,150 nM
same,TGI,SNB-19 CNS,2610 nM
same,GI50,A549 NSCLC,155 nM
same,TGI,A549 NSCLC,1750 nM
same,GI50,BT-549 breast,1080 nM
same,TGI,BT-549 breast,17500 nM
same,GI50,HL-60(TB) leukemia,381 nM
same,TGI,HL-60(TB) leukemia,1560 nM
same,GI50,SF-539 CNS,305 nM
same,TGI,SF-539 CNS,1090 nM
same,GI50,SK-OV-3 ovarian,182 nM
same,TGI,SK-OV-3 ovarian,914 nM
same,GI50,MOLT-4 leukemia,42.1 nM
same,TGI,MOLT-4 leukemia,514 nM
same,GI50,HT29 colon,75.3 nM
same,TGI,HT29 colon,2020 nM
same,GI50,ACHN renal,49.6 nM
same,TGI,ACHN renal,1910 nM
same,GI50,OVCAR-5 ovarian,795 nM
same,TGI,OVCAR-5 ovarian,13300 nM
same,GI50,U251 CNS,44.2 nM
same,TGI,U251 CNS,1350 nM
same,GI50,SF-295 CNS,51.8 nM
same,TGI,SF-295 CNS,891 nM
same,GI50,NCI-H23 lung,220 nM
same,TGI,NCI-H23 lung,1660 nM
same,GI50,RPMI-8226 leukemia,70.2 nM
same,TGI,RPMI-8226 leukemia,1210 nM
same,GI50,NCI-H226 lung,247 nM
same,TGI,NCI-H226 lung,1660 nM
same,GI50,HCT-15 colon,1210 nM
same,TGI,HCT-15 colon,4530 nM
same,GI50,IGROV1 ovarian,434 nM
same,TGI,IGROV1 ovarian,15500 nM
same,GI50,SK-MEL-5 melanoma,342 nM
same,TGI,SK-MEL-5 melanoma,1440 nM
same,GI50,MALME-3M melanoma,598 nM
same,TGI,MALME-3M melanoma,13200 nM
same,GI50,HCT-116 colon,82.5 nM
same,TGI,HCT-116 colon,1830 nM
same,GI50,CCRF-CEM leukemia,40.2 nM
same,TGI,CCRF-CEM leukemia,5490 nM
same,GI50,NCI/ADR-RES ovarian,340 nM
same,TGI,NCI/ADR-RES ovarian,11900 nM
same,GI50,HOP-62 NSCLC,59.5 nM
same,TGI,HOP-62 NSCLC,2600 nM
same,GI50,OVCAR-4 ovarian,463 nM
same,TGI,OVCAR-4 ovarian,2360 nM
same,GI50,EKVX NSCLC,897 nM
same,TGI,EKVX NSCLC,24500 nM
same,GI50,UACC-257 melanoma,456 nM
same,TGI,UACC-257 melanoma,20400 nM
same,GI50,SF-268 CNS,135 nM
same,TGI,SF-268 CNS,2580 nM
same,GI50,NCI-H460 lung,35.6 nM
same,TGI,NCI-H460 lung,1110 nM
same,GI50,UACC-62 melanoma,344 nM
same,TGI,UACC-62 melanoma,14600 nM
same,GI50,UO-31 renal,108 nM
same,TGI,UO-31 renal,1120 nM
same,GI50,PC-3 prostate,208 nM
same,TGI,PC-3 prostate,18700 nM
same,GI50,KM12 colon,577 nM
same,TGI,KM12 colon,3680 nM
same,GI50,SK-MEL-28 melanoma,12100 nM
same,TGI,SK-MEL-28 melanoma,24900 nM
same,GI50,SR leukemia,49.9 nM
same,TGI,SR leukemia,2040 nM
same,GI50,SNB-75 CNS,358 nM
same,TGI,SNB-75 CNS,18900 nM
same,GI50,TK-10 renal,1120 nM
same,TGI,TK-10 renal,2520 nM
same,GI50,COLO 205 colon,201 nM
same,TGI,COLO 205 colon,1910 nM
same,GI50,LOX IMVI melanoma,111 nM
same,TGI,LOX IMVI melanoma,1120 nM
same,GI50,SN12C renal,238 nM
same,TGI,SN12C renal,12300 nM
same,GI50,HOP-92 NSCLC,563 nM
same,TGI,HOP-92 NSCLC,19700 nM
same,GI50,A498 renal,264 nM
same,TGI,A498 renal,1630 nM
same,GI50,M14 melanoma,170 nM
same,TGI,M14 melanoma,1320 nM
same,GI50,HS 578T breast,12000 nM
same,TGI,HS 578T breast,32400 nM
same,GI50,SW-620 colon,120 nM
same,TGI,SW-620 colon,3340 nM
